In US10494363B2, “Non-steroidal glucocorticoid receptor modulators for local drug delivery” (LEO PHARMA A/S, priority 2015, dated 2019):

What was measured:
[1] = test system: TNF alpha release from human PBMCs; assay: Inhibition of TNF alpha release from human PBMCs; type: cell-based; conditions: LPS 1 μg/ml, 18 hours, AlphaLISA
Summary of the method: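 Fresh or thawed PBMCs in serum-free medium with 0.5% HSA, stimulated with 1 μg/ml LPS plus titrated compound for 18 h at 37° C. TNF-a in supernatant by AlphaLISA; window set with a reference PDE4 inhibitor at 100×IC50. EC50 and Emax from sigmoidal fits.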

[2] = target: T1, glucocorticoid receptor (GR), recombinant full-length receptor protein (Homo sapiens, UniProt P04150); assay: Glucocorticoid receptor binding assay (fluorescence polarization kit); conditions: 4 nM receptor, 2.5 nM Fluormone GS1 tracer, 2h room temperature, read-out: GR binding ABS IC50
T1 construct: 4 nM recombinant, full-length receptor protein was incubated with increasing concentrations of GR ligand; purchased Life Technologies A-15897
T1 sequence (P04150 1-777): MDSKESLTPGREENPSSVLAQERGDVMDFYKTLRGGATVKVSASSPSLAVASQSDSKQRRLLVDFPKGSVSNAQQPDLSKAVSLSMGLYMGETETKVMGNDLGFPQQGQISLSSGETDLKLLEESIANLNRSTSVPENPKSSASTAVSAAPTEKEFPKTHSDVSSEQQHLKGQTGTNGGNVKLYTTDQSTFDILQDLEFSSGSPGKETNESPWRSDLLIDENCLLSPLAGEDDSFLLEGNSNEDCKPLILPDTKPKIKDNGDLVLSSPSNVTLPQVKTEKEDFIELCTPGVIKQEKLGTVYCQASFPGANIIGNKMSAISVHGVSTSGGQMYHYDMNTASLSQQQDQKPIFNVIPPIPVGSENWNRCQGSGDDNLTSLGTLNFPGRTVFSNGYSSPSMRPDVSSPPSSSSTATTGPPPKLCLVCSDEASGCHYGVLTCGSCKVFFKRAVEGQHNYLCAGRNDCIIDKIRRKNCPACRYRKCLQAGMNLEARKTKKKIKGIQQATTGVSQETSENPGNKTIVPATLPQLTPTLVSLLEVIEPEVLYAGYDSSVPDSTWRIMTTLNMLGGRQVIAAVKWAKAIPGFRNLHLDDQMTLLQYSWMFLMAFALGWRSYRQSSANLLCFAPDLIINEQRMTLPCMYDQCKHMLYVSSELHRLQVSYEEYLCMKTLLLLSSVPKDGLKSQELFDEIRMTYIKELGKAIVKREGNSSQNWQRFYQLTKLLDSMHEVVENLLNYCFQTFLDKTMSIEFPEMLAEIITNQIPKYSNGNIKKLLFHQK
Method: Test compounds were diluted in DMSO over seven orders of magnitude, further diluted in assay buffer and distributed into 384-well plates. The sensitivity limit of this assay was 2-4 nM.
Data were processed by sigmoidal curve fitting.
Absolute (Abs) IC50 and Emax were determined from the curve fits.

[3] = Human liver microsomes (HLM) assay; type: in vitro ADME; conditions: hepatic extraction ratio; 0.5 μM compound, 0.5 mg/mL microsomes, NADPH, 37° C.
Summary of the method: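 Compound at 0.5 μM incubated at 37° C. with human liver microsomes (0.5 mg/mL) and NADPH (1 mM) in phosphate buffer pH 7.4, 1% organic solvent; sampled 0-30 minutes. Clapp (mL/min/kg) and Eh (%) derived from depletion rate constant.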

| SMILES | IC50 [2] [nM] | HLM assay Eh (%) [3] | EC50 ([1]; PBMC) [nM] | EC50 [1] [nM] |
| --- | --- | --- | --- | --- |
| Cc1sncc1C(=O)N[C@@H](C)[C@H](Oc1ccc(C(=O)O[C@H]2CCCN(C(=O)[C@H]3COC(=O)C3)C2)cc1)c1ccc(C2CC2)cc1 [Compound 48, [(3S)-1-[(3R)-5-oxotetrahydrofuran-3-carbonyl]-3-piperidyl] 4-[(1R,2S)-1-(4-cyclopropylphenyl)-2-[(5-methylisothiazole-4-carbonyl)amino]propoxy]benzoate] | < 100 | * (extraction ratio (Eh)>90%) | < 100 |  |
| C[C@H](NC(=O)c1ncco1)[C@H](Oc1ccc(C(=O)O[C@H]2CCCN(C(=O)[C@H]3COC(=O)C3)C2)cc1)c1ccc(C2CC2)cc1 [Compound 49, [(3S)-1-[(3R)-5-oxotetrahydrofuran-3-carbonyl]-3-piperidyl] 4-[(1R,2S)-1-(4-cyclopropylphenyl)-2-(oxazole-2-carbonylamino)propoxy]benzoate] | < 100 | * (extraction ratio (Eh)>90%) | < 100 |  |
| C[C@H](NC(=O)c1cnco1)[C@H](Oc1ccc(C(=O)O[C@H]2CCCN(C(=O)[C@H]3COC(=O)C3)C2)cc1)c1ccc(C2CC2)cc1 [Compound 50, [(3S)-1-[(3R)-5-oxotetrahydrofuran-3-carbonyl]-3-piperidyl] 4-[(1R,2S)-1-(4-cyclopropylphenyl)-2-(oxazole-5-carbonylamino)propoxy]benzoate] | < 100 | * (extraction ratio (Eh)>90%) | < 100 |  |
| C[C@H](NC(=O)c1ccon1)[C@H](Oc1ccc(C(=O)O[C@H]2CCCN(C(=O)[C@H]3COC(=O)C3)C2)cc1)c1ccc(C2CC2)cc1 [Compound 51, [(3S)-1-[(3R)-5-oxotetrahydrofuran-3-carbonyl]-3-piperidyl] 4-[(1R,2S)-1-(4-cyclopropylphenyl)-2-(isoxazole-3-carbonylamino)propoxy]benzoate] | < 100 | * (extraction ratio (Eh)>90%) | < 100 |  |
| C[C@H](NC(=O)c1csnn1)[C@H](Oc1ccc(C(=O)O[C@H]2CCCN(C(=O)[C@H]3COC(=O)C3)C2)cc1)c1ccc(C2CC2)cc1 [Compound 52, [(3S)-1-[(3R)-5-oxotetrahydrofuran-3-carbonyl]-3-piperidyl] 4-[(1R,2S)-1-(4-cyclopropylphenyl)-2-(thiadiazole-4-carbonylamino)propoxy]benzoate] | < 100 | * (extraction ratio (Eh)>90%) |  | < 100 |
| Cc1cc(C(=O)N[C@@H](C)[C@H](Oc2ccc(C(=O)O[C@H]3CCCN(C(=O)[C@H]4COC(=O)C4)C3)cc2)c2ccc(C3CC3)cc2)no1 [Compound 53, [(3S)-1-[(3R)-5-oxotetrahydrofuran-3-carbonyl]-3-piperidyl] 4-[(1R,2S)-1-(4-cyclopropylphenyl)-2-[(5-methylisoxazole-3-carbonyl)amino]propoxy]benzoate] | < 100 | * (extraction ratio (Eh)>90%) | < 100 |  |

The next lines start with results.

| IC50 [2] [nM] | HLM assay Eh (%) [3] | SMILES | EC50 ([1]; PBMC) [nM] | EC50 [1] [nM] |
| --- | --- | --- | --- | --- |
| < 100 | * (extraction ratio (Eh)>90%) | C[C@H](NC(=O)c1ccno1)[C@H](Oc1ccc(C(=O)O[C@H]2CCCN(C(=O)[C@H]3COC(=O)C3)C2)cc1)c1ccc(C2CC2)cc1 [Compound 54, [(3S)-1-[(3R)-5-oxotetrahydrofuran-3-carbonyl]-3-piperidyl] 4-[(1R,2S)-1-(4-cyclopropylphenyl)-2-(isoxazole-5-carbonylamino)propoxy]benzoate] | < 100 |  |
| < 100 | * (extraction ratio (Eh)>90%) | C[C@H](NC(=O)c1cscn1)[C@H](Oc1ccc(C(=O)O[C@H]2CCCN(C(=O)[C@H]3COC(=O)C3)C2)cc1)c1ccc(C2CC2)cc1 [Compound 55, [(3S)-1-[(3R)-5-oxotetrahydrofuran-3-carbonyl]-3-piperidyl] 4-[(1R,2S)-1-(4-cyclopropylphenyl)-2-(thiazole-4-carbonylamino)propoxy]benzoate] | < 100 |  |
| < 100 | * (extraction ratio (Eh)>90%) | Cc1noc(C(=O)N[C@@H](C)[C@H](Oc2ccc(C(=O)O[C@H]3CCCN(C(=O)[C@H]4COC(=O)C4)C3)cc2)c2ccc(C3CC3)cc2)n1 [Compound 56, [(3S)-1-[(3R)-5-oxotetrahydrofuran-3-carbonyl]-3-piperidyl] 4-[(1R,2S)-1-(4-cyclopropylphenyl)-2-[(3-methyl-1,2,4-oxadiazole-5-carbonyl)amino]propoxy]benzoate] | < 100 |  |
| < 100 | * (extraction ratio (Eh)>90%) | C[C@H](NC(=O)c1ccn(C)n1)[C@H](Oc1ccc(C(=O)O[C@H]2CCCN(C(=O)[C@H]3COC(=O)C3)C2)cc1)c1ccc(C2CC2)cc1 [Compound 57, [(3S)-1-[(3R)-5-oxotetrahydrofuran-3-carbonyl]-3-piperidyl] 4-[(1R,2S)-1-(4-cyclopropylphenyl)-2-[(1-methylpyrazole-3-carbonyl)amino]propoxy]benzoate] | < 100 |  |
| < 100 | * (extraction ratio (Eh)>90%) | C[C@H](NC(=O)C(C)(F)F)[C@H](Oc1ccc(C(=O)O[C@H]2CCCN(C(=O)[C@H]3COC(=O)C3)C2)cc1)c1ccc(C2CC2)cc1 [Compound 58, [(3S)-1-[(3R)-5-oxotetrahydrofuran-3-carbonyl]-3-piperidyl] 4-[(1R,2S)-1-(4-cyclopropylphenyl)-2-(2,2-difluoropropanoylamino)propoxy]benzoate] | < 100 |  |
| < 100 | * (extraction ratio (Eh)>90%) | CCc1ccc([C@@H](Oc2ccc(C(=O)N[C@H]3CCCN(C(=O)[C@H]4COC(=O)C4)C3)nc2)[C@H](C)NC(=O)C(F)(F)F)cc1 [Compound 66, 5-[(1R,2S)-1-(4-ethylphenyl)-2-[(2,2,2-trifluoroacetyl)amino]propoxy]-N-[(3S)-1-[(3R)-5-oxotetrahydrofuran-3-carbonyl]-3-piperidyl]pyridine-2-carboxamide] | < 100 |  |
